From article PMC11275795 (bioRxiv, 2024) come the findings set out here.

For this assay, the target named is FIGNL1∆N (Homo sapiens, UniProt Q6PIW4). The note with it: activity enhanced by RAD51 or its N-terminal peptide.
Sequence of FIGNL1∆N (Q6PIW4 287-674): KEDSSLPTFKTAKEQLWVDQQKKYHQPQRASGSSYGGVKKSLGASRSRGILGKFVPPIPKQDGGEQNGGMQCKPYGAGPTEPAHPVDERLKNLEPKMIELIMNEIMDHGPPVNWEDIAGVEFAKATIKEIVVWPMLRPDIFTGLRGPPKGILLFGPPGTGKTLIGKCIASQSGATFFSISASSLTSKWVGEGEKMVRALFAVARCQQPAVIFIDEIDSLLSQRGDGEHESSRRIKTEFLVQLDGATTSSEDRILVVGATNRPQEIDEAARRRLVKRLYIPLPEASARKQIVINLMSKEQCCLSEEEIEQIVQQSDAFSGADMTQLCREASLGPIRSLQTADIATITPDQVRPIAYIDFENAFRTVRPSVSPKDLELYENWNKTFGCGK

Regarding `Nc1ncnc2c1ncn2[C@@H]1O[C@H](COP(=O)(O)OP(=O)(O)OP(=O)(O)O)[C@@H](O)[C@H]1O` [ATP], the ATPase assay entry is “The ATPase activity of FIGNL1∆N is enhanced in the presence of RAD51”.
